Where two headings read alike, the source gives them in different places.
Legend:
[1] = molecular target: T1, PD-L1 protein on the surface of MC38-hPDL1 tumor cells (Homo sapiens, UniProt Q9NZQ7); assay: Induction of endocytosis of PD-L1 on the surface of tumor cells (flow cytometry); assay type: cell-based; conditions: 16 hours incubation; for Emax: MC38-hPDL1 cells, read-out: MC38 maximum endocytosis rate; for IC50: inducing endocytosis of PD-L1, MC38-hPDL1 cells, read-out: MC38 IC50
T1 construct: expressed in transfected cells; host or cells: MC38-hPDL1 (mouse colon cancer cells)
T1 sequence (Q9NZQ7 19-290): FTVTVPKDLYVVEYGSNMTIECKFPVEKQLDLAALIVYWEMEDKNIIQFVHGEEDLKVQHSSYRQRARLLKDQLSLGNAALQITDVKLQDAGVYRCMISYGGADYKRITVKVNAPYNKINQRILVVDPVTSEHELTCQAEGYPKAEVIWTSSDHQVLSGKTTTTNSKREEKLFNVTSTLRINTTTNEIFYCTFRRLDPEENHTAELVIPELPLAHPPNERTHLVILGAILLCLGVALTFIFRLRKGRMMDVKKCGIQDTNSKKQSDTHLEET
In short: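 IC50 comes from nonlinear fits of endocytosis rate, calculated from the loss of surface PE-anti-CD274 flow signal relative to vehicle. Cells were MC38 mouse colon cancer cells engineered to express high human PD-L1. Compound exposure lasted 16 h at 37 °C, 5% CO2.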

[2] = molecular target: T2, human PD-L1 protein (Homo sapiens, UniProt Q9NZQ7); assay: Thermal shift: melting temperature of PD-L1 protein; assay type: binding; conditions: for ΔTm at 10 µM: read-out: ΔTm (° C.)
T2 construct: purchased Acro Biosystems PD1-H5229
T2 sequence (Q9NZQ7 19-238 limits assumed): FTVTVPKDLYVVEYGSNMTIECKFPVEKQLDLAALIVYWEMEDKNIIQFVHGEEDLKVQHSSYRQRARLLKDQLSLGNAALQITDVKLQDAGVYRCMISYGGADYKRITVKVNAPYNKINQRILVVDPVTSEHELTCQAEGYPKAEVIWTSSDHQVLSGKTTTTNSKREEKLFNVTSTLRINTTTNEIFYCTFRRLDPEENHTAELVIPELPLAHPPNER
Method: Test Embodiment 4. Test of Combination of the Compounds of the Present Disclosure to Improve the Stability (Melting Temperature) of PD-L1 Protein Experimental purpose: To test the ability of compounds to enhance the stability of PD-L1 protein and increase the melting temperature of the protein. Experimental method: […] A solution containing […] HEPES, SYPRO Orange, and 150 mM NaCl was prepared as experimental buffer, and human PD-L1 protein was added at a final concentration of 2 μM. […] PCR tube was put into the PCR machine, and the melt curve function was selected to detect the melting temperature of PD-L1 protein in different treatment groups (heated from 25° C. to 95° C., 0.03° C./s). The experimental data file of the PCR instrument was imported into the thermal shift software to obtain the melting temperature (Tm) of each treatment group, and the Tm of the DMSO vehicle control group was subtracted to obtain the change value (ΔTm) of the melting temperature, as shown in the following table: […]

[3] = compound 10 μM, PD-L1 protein 2 μM, Tm minus DMSO vehicle control

Compound	Emax [1] [%]	ΔTm at 10 µM [2, 3] [°C]	IC50 [1] [nM]	ΔTm at 10 µM [2] [°C]	ΔTm (° C.) [2, 3] [°C]
COc1nc(-c2cccc(-c3cccc(NC(=O)c4nc5c(n4C4CC4)CCN(C)C5)c3Cl)c2Cl)ccc1CN[C@H]1CCOC[C@@H]1O (relative stereo) [Embodiment 244, 1-Cyclopropyl-N-(2,2′-dichloro-3′-(5-(((trans-3-hydroxytetrahydro-2H-pyran-4-yl)amino)methyl)-6-methoxypyridin-2-yl)-[1,1′-biphenyl]-3-yl)-5-methyl-4,5,6,7-tetrahydro-1H-imidazo[4,5-c]pyridine-2-carboxamide]	94	11.4			
COc1cc(C(=O)Nc2cccc(-c3cccc(NC(=O)c4nc5c(n4C)CCN(C)C5)c3Cl)c2C)ncc1CNc1cc(C)ncn1 [Embodiment 91, N-(2-Chloro-3′-(4-methoxy-5-(((6-methylpyrimidin-4-yl)amino)methyl)picolinamido)-2′-methyl-[1,1′-biphenyl]-3-yl)-1,5-dimethyl-4,5,6,7-tetrahydro-1H-imidazo[4,5-c]pyridine-2-carboxamide]	81	10.3	14		
COc1cc(C(=O)Nc2cccc(-c3cccc(NC(=O)c4nc5c(n4C)CCN(C)C5)c3Cl)c2C)ncc1CNc1ccc(C)nc1 [Embodiment 92, N-(2-Chloro-3′-(4-methoxy-5-(((6-methylpyridin-3-yl)amino)methyl)picolinamido)-2′-methyl-[1,1′-biphenyl]-3-yl)-1,5-dimethyl-4,5,6,7-tetrahydro-1H-imidazo[4,5-c]pyridine-2-carboxamide]	83	10.5	9		
COc1nc(-c2cccc(-c3cccc(NC(=O)c4nc5c(n4C)CCN(C)C5)c3Cl)c2Cl)ccc1CN[C@@H]1CCOC[C@@H]1F [Embodiment 115, N-(2,2′-Dichloro-3′-(5-((((3R,4R)-3-fluorotetrahydro-2H-pyran-4-yl)amino)methyl)-6-methoxypyridin-2-yl)-[1,1′-biphenyl]-3-yl)-1,5-dimethyl-4,5,6,7-tetrahydro-1H-imidazo[4,5-c]pyridine-2-carboxamide]	93		5.3	12.7	
COc1nc(-c2cccc(-c3cccc(NC(=O)c4nc5c(n4C)CCN(C)C5)c3Cl)c2Cl)ccc1CN1CC(CC#N)C1 [Embodiment 182, N-(2,2′-Dichloro-3′-(5-((3-(cyanomethyl)azetidin-1-yl)methyl)-6-methoxypyridin-2-yl)-[1,1′-biphenyl]-3-yl)-1,5-dimethyl-4,5,6,7-tetrahydro-1H-imidazo[4,5-c]pyridine-2-carboxamide]	97	16.3			
COc1nc(-c2cccc(-c3cccc(NC(=O)c4nc5c(n4C)CCN(C)C5)c3Cl)c2Cl)ccc1CN1CC2(C1)CN(C(=O)C1CC1)C2 [Embodiment 187, N-(2,2′-Dichloro-3′-(5-((6-(cyclopropylcarbonyl)-2,6-diazaspiro[3.3]heptan-2-yl)methyl)-6-methoxypyridin-2-yl)-[1,1′-biphenyl]-3-yl)-1,5-dimethyl-4,5,6,7-tetrahydro-1H-imidazo[4,5-c]pyridine-2-carboxamide]	95	21.1	1.1		
COc1nc(-c2cccc(-c3cccc(NC(=O)c4nc5c(n4C)CCN(C)C5)c3Cl)c2Cl)ccc1CN1CC2(C1)CN(C(=O)C(F)(F)F)C2 [Embodiment 189, N-(2,2′-Dichloro-3′-(6-methoxy-5-((6-(2,2,2-trifluoroacetyl)-2,6-diazaspiro[3.3]heptan-2-yl)methyl)pyridin-2-yl)-[1,1′-biphenyl]-3-yl)-1,5-dimethyl-4,5,6,7-tetrahydro-1H-imidazo[4,5-c]pyridine-2-carboxamide]	96	19.5			
COc1nc(-c2cccc(-c3cccc(NC(=O)c4nc5c(n4C)CCN(C)C5)c3Cl)c2Cl)ccc1CN1CC2(CCN(C(=O)C(C)C)C2)C1 [Embodiment 196, N-(2,2′-Dichloro-3′-(5-((6-isobutyryl-2,6-diazaspiro[3.4]octan-2-yl)methyl)-6-methoxypyridin-2-yl)-[1,1′-biphenyl]-3-yl)-1,5-dimethyl-4,5,6,7-tetrahydro-1H-imidazo[4,5-c]pyridine-2-carboxamide]	96	12.4			
COc1nc(-c2cccc(-c3cccc(NC(=O)c4nc5c(n4C)CCN(C)C5)c3Cl)c2Cl)ccc1CN1CCN(C(=O)C(C)C)CC1 [Embodiment 199, N-(2,2′-Dichloro-3′-(5-((4-isobutyrylpiperazin-1-yl)methyl)-6-methoxypyridin-2-yl)-[1,1′-biphenyl]-3-yl)-1,5-dimethyl-4,5,6,7-tetrahydro-1H-imidazo[4,5-c]pyridine-2-carboxamide]	93	11.4			
COc1nc(-c2cccc(-c3cccc(NC(=O)c4nc5c(n4C)CCN(C)C5)c3Cl)c2Cl)ccc1CN1CCN(C(=O)C2CC2)CC1 [Embodiment 200, N-(2,2′-Dichloro-3′-(5-((4-(cyclopropylcarbonyl)piperazin-1-yl)methyl)-6-methoxypyridin-2-yl)-[1,1′-biphenyl]-3-yl)-1,5-dimethyl-4,5,6,7-tetrahydro-1H-imidazo[4,5-c]pyridine-2-carboxamide]	95	12.5			
CCC(=O)N1CCN(Cc2ccc(-c3cccc(-c4cccc(NC(=O)c5nc6c(n5C)CCN(C)C6)c4Cl)c3Cl)nc2OC)CC1 [Embodiment 201, N-(2,2′-Dichloro-3′-(6-methoxy-5-((4-propionylpiperazin-1-yl)methyl)pyridin-2-yl)-[1,1′-biphenyl]-3-yl)-1,5-dimethyl-4,5,6,7-tetrahydro-1H-imidazo[4,5-c]pyridine-2-carboxamide]	94	12.1			
COc1nc(-c2cccc(-c3cccc(NC(=O)c4nc5c(n4C)CCN(C)C5)c3Cl)c2Cl)ccc1CN1CCN(C(C)=O)CC1 [Embodiment 203, N-(3′-(5-((4-Acetylpiperazin-1-yl)methyl)-6-methoxypyridin-2-yl)-2,2′-dichloro-[1,1′-biphenyl]-3-yl)-1,5-dimethyl-4,5,6,7-tetrahydro-1H-imidazo[4,5-c]pyridine-2-carboxamide]	95	13.5			10.5
COc1nc(-c2cccc(-c3cccc(NC(=O)c4nc5c(n4C)CCN(C)C5)c3Cl)c2Cl)ccc1CN1CC2CC(C1)N2C(C)=O [Embodiment 206, N-(3′-(5-((6-Acetyl-3,6-diazabicyclo[3.1.1]heptan-3-yl)methyl)-6-methoxypyridin-2-yl)-2,2′-dichloro-[1,1′-biphenyl]-3-yl)-1,5-dimethyl-4,5,6,7-tetrahydro-1H-imidazo[4,5-c]pyridine-2-carboxamide]	90	11.6			
COc1nc(-c2cccc(-c3cccc(NC(=O)c4nc5c(n4C)CCN(C)C5)c3Cl)c2Cl)ccc1CN1C2CC1CN(C(=O)C(C)C)C2 [Embodiment 210, N-(2,2′-Dichloro-3′-(5-((3-isobutyryl-3,6-diazabicyclo[3.1.1]heptan-6-yl)methyl)-6-methoxypyridin-2-yl)-[1,1′-biphenyl]-3-yl)-1,5-dimethyl-4,5,6,7-tetrahydro-1H-imidazo[4,5-c]pyridine-2-carboxamide]	88	10.7			
COc1nc(-c2cccc(-c3cccc(NC(=O)c4nc5c(n4C)CCN(C)C5)c3Cl)c2Cl)ccc1CN1CCC(C#N)CC1 [Embodiment 211, N-(2,2′-Dichloro-3′-(5-((4-cyanopiperidin-1-yl)methyl)-6-methoxypyridin-2-yl)-[1,1′-biphenyl]-3-yl)-1,5-dimethyl-4,5,6,7-tetrahydro-1H-imidazo[4,5-c]pyridine-2-carboxamide]	95	14.6	3.1		
COc1nc(-c2cccc(-c3cccc(NC(=O)c4nc5c(n4C)CCN(C)C5)c3Cl)c2Cl)ccc1CN1CCC(C)(C#N)CC1 [Embodiment 212, N-(2,2′-Dichloro-3′-(5-((4-cyano-4-methylpiperidin-1-yl)methyl)-6-methoxypyridin-2-yl)-[1,1′-biphenyl]-3-yl)-1,5-dimethyl-4,5,6,7-tetrahydro-1H-imidazo[4,5-c]pyridine-2-carboxamide]	94	14.9	11.6		
COc1nc(-c2cccc(-c3cccc(NC(=O)c4nc5c(n4C)CCN(C)C5)c3Cl)c2Cl)ccc1CNCC1(C#N)CC1 [Embodiment 213, N-(2,2′-Dichloro-3′-(5-((((1-cyanocyclopropyl)methyl)amino)methyl)-6-methoxypyridin-2-yl)-[1,1′-biphenyl]-3-yl)-1,5-dimethyl-4,5,6,7-tetrahydro-1H-imidazo[4,5-c]pyridine-2-carboxamide]	96	14.5	4.1		
COC(=O)[C@H](CO)NCc1cnc(-c2cccc(-c3cccc(NC(=O)c4nc5c(n4C)CCN(C)C5)c3Cl)c2Cl)nc1OC [Embodiment 227, Methyl ((2-(2,2′-dichloro-3′-(1,5-dimethyl-4,5,6,7-tetrahydro-1H-imidazo[4,5-c]pyridine-2-carboxamido)-[1,1′-biphenyl]-3-yl)-4-methoxypyrimidin-5-yl)methyl)-L-serinate]		11.9			

Reference: patent publication US20230105212A1, “BIPHENYL DERIVATIVE INHIBITOR, PREPARATION METHOD THEREFOR AND USE THEREOF” (SHANGHAI HANSOH BIOMEDICAL CO., LTD., priority 2020, published 2023)
